Data as given in patent US20020147187A1, “1,2-diphenyl-1-naphthyl ethene derivatives, analogs and use thereof” (priority 2001, published 2002).

Legend:
[1] = target: human recombinant estrogen receptor beta (Homo sapiens, UniProt Q92731); assay: Estrogen receptor beta binding assay ([3H] Estradiol displacement); conditions: displacement of 0.5 nM [3H] Estradiol, 7.5 ng receptor protein, 2 hours at 25° C.; read-out: IC50 Value, Estrogen Receptor Subtype Beta
MCF-7 cells = assay: MCF-7 cell proliferation assay (estradiol stimulated versus unstimulated, MTT); type: cell-based, human; conditions: estradiol stimulated versus unstimulated MCF-7 cells, FIG. 1
Procedure: Those skilled in the art will appreciate that several acceptable estrogen receptor-binding assays are known and available for initial screening of the compounds of the present invention. The initial screen chosen for detecting anti-estrogenic/estrogenic activity was a human cell line assay, namely the MCF-7 cell proliferation assay. MCF-7 cells are estrogen-receptor positive (ER+) cancer cells that respond to estradiol stimulation. Anti-estrogenic activity is measured in terms of a test article's ability to inhibit estradiol stimulated proliferation, implying an antagonistic action on the estrogen receptor and estrogenic activity can be inferred from increased proliferation. The following testing procedure was used.
MCF-7 cells were maintained in a RPMI medium, free of phenol red, and supplemented with 5% charcoal-stripped foetal calf serum, hydrocortisone, bovine insulin, penicillin and streptomycin until they reached 70% confluence. […] Cell survival was evaluated after 3-6 days, by replacing the culture media with 150 μl of fresh medium containing 10 mM 4-(2-hydroxyethyl)-1-piperazineethamsulfonic acid buffer (pH 7.4) followed by the addition of 50 μl of 2.5 mg/ml of 3-(4,5-dimethylthiazo-2-yl)-2,5-diphenyltetrazolium bromide (MTT). […] Plates were shaken for 15 minutes and the absorbance was determined at 570 nm with a microplate reader (BIORAD, model 450). […]

[2] = target: T1, human recombinant estrogen receptor alpha (Homo sapiens, UniProt P03372); assay: Estrogen receptor alpha binding assay ([3H] Estradiol displacement); conditions: IC50 Value, Estrogen Receptor Subtype Alpha, displacement of 0.5 nM [3H] Estradiol, 4.5 ng receptor protein, 2 hours at 25° C.
T1 sequence (P03372 1-595): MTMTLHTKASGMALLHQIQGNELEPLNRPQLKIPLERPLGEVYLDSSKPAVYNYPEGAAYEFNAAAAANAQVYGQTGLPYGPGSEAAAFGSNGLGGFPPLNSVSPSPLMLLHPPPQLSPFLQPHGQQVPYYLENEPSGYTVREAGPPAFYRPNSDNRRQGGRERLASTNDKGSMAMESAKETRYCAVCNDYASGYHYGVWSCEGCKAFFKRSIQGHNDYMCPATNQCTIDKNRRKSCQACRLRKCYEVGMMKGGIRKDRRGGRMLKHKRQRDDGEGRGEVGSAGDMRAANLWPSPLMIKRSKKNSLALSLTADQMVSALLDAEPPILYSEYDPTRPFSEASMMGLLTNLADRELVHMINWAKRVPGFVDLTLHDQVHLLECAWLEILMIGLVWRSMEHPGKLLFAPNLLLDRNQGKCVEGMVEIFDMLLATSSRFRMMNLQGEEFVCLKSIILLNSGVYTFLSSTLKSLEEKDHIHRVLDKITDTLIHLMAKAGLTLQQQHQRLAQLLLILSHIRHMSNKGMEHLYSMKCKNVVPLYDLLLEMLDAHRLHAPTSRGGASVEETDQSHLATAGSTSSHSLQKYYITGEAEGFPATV
Procedure: The stable expression of these individual receptor subtypes in cells provides a rapid and accurate means of quantifying the direct interaction of a test article with the estrogen binding sites. Briefly, this assay is conducted in 96 well plates where a series of concentrations of the test article are used to displace tritiated estradiol from either estrogen receptor alpha or estrogen receptor beta bearing cell membranes, under equilibrium conditions. […] This measurement is the primary test for mediation of the estrogen receptor and can also be used to measure the relative selectivity of the test article for either the alpha or beta subtype.
The alpha subtype assay measures the binding of [^3H] Estradiol to the human recombinant estrogen receptor. […] Membranes are filtered and washed 3 times, and the filters are counted to determine [^3H] Estradiol specifically bound. […] The measurement of the displaced tritiated estradiol allows the determination of an IC50 value, a direct measure of the test articles' interaction with the estrogen receptor alpha.

human recombinant estrogen receptor beta, sequence (Q92731 whole entry): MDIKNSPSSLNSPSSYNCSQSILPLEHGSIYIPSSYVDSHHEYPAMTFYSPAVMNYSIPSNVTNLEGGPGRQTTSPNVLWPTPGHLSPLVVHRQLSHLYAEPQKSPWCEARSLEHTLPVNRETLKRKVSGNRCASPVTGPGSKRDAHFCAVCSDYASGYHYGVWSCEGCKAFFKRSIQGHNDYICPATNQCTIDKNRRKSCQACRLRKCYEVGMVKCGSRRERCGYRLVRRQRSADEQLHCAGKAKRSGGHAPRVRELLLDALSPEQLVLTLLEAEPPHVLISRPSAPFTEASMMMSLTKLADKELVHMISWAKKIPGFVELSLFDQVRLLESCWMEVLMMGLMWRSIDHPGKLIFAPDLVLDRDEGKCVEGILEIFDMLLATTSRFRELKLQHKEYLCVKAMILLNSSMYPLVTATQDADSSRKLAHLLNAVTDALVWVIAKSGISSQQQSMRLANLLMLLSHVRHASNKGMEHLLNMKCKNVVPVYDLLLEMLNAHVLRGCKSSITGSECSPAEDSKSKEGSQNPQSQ

## C/C(=C(/c1ccc(O)cc1)c1cccc2cc(O)ccc12)c1ccc(OCCN2CCCC2)cc1 [Formula II, (E)-5-[1-(4-hydroxyphenyl)-2-[4-(2-pyrrolidin-1-yl-ethoxy)-phenyl]-propenyl]-naphthalen-2-ol]
[1]
  IC50: 75 nM
MCF-7 cells
  effect on estradiol stimulated proliferation of MCF-7 cells (shift in dose-response curve): antagonizing the effect of estradiol
[2]
  IC50: 5.54 nM
